For this test, the target named is T1, mGluR5 receptor (pig) (Sus scrofa, UniProt I3LUI7).
T1 construct: 450 μg protein from brain homogenate is incubated with 5 nM ^3[H]-MPEP; from tissue; host or cells: pig brain halves without medulla, cerebellum and pons
Kind of test: [3H]-MPEP bond in the mGluR5 receptor bond assay (pig brain homogenate). The format is binding. As to conditions: 5 nM [3H]-MPEP; for inhibition at 10 µM: 10 μM test compound, 450 μg protein pig brain homogenate, 60 min room temperature; for IC50: pig brain homogenate. As for the experimental part: I. Method for Determining the Inhibition of the [^3H]-MPEP Bond in the mGluR5 Receptor Bond Assay
Pig brain homogenate is produced by homogenisation (Polytron PT 3000, Kinematica AG, 10,000 rpm for 90 seconds) of pig brain halves without medulla, cerebellum and pons in buffer pH 8.0 (30 mM Hepes, Sigma, order no. H3375+1 tablet complete to 100 ml, Roche Diagnostics, order no. 1836145) in the ratio 1:20 (brain weight/volume) and differential centrifugation at 900×g and 40,000×g. In each case, 450 μg protein from brain homogenate is incubated with 5 nM ^3[H]-MPEP (Tocris, order no. […]
Thereafter, the batches are filtered with the help of a Brandel Cell Harvester (Brandel, TYP Robotic 9600) on unifilter plates with glass fibre filter mats (Perkin Elmer, order no. 6005177) and subsequently washed with buffer (as above) 3 times with in each case 250 μl per sample. The filter plates are subsequently dried for 60 min at 55° C. 30 μL Ultima Gold™ scintillator (Packard BioScience, order no. 6013159) is subsequently added per well and the samples are measured after 3 hours on the β-counter (Mikrobeta, Perkin Elmer). The unspecific bond is determined by addition of 10 μM MPEP (Tocris, order no. 1212).

The values that follow come from patent US20090182020A1, “SUBSTITUTED BIS(HETERO)AROMATIC N--ETHYLPROPIOLAMIDES AND USE THEREOF FOR PRODUCTION OF MEDICAMENTS” (GRUNENTHAL GMBH, priority 2005, published 2009).

T1 sequence (I3LUI7 19-1212): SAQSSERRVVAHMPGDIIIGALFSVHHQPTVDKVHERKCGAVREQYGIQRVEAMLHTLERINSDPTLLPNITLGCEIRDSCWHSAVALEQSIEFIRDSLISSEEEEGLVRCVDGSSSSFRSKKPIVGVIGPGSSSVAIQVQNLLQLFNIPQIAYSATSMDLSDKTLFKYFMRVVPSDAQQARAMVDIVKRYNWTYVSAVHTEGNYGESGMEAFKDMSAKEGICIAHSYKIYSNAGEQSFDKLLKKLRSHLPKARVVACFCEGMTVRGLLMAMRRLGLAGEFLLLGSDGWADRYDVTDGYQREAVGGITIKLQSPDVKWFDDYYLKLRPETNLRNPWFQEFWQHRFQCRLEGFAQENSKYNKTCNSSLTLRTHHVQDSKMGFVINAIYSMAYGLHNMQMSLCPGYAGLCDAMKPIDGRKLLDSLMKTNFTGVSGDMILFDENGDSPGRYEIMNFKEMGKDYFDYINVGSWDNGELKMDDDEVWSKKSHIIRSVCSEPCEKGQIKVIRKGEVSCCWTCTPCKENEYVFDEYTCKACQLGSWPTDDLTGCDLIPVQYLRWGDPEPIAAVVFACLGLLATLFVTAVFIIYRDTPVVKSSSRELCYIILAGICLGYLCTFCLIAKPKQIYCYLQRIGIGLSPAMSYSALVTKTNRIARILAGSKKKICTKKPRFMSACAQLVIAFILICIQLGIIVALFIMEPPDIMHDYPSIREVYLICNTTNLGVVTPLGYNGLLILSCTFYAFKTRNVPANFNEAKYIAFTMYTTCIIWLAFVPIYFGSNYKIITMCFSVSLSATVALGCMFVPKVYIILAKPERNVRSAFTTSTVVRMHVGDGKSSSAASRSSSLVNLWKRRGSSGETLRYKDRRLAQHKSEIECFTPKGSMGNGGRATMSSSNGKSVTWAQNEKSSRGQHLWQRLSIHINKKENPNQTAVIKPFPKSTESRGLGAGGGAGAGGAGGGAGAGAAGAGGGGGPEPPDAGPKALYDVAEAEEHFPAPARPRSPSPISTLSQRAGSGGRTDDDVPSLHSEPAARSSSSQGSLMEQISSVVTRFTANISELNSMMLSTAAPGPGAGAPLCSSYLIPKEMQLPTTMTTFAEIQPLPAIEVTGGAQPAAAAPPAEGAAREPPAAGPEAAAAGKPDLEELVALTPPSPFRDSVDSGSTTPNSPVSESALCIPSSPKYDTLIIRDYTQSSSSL

As usually defined, the inhibition is the relative decrease from the control value, in per cent. For the compound `N#Cc1cccc(C#CC(=O)NCCc2ccc(F)cc2)c1` [Example 99, 3-(3-cyanophenyl)-N-(4-fluorophenethyl)propiolamide], the inhibition at 10 µM came to 89%.

As for `O=C(C#Cc1ccccc1)NCCc1ccc(Cl)c(Cl)c1` [Example 101, N-(3,4-dichlorophenethyl)-3-phenylpropiolamide], the inhibition at 10 µM was determined as 89%.

`Cc1cccc(C#CC(=O)NCCc2ccc(Cl)c(Cl)c2)c1` [Example 102, N-(3,4-dichlorophenethyl)-3-m-tolylpropiolamide]: the inhibition at 10 µM came to 105%.

For `O=C(C#Cc1cccs1)NCCc1ccc(Cl)c(Cl)c1` [Example 103, N-(3,4-dichlorophenethyl)-3-(thiophene-2-yl)propiolamide], the inhibition at 10 µM worked out at 88%.

As for `N#Cc1cccc(C#CC(=O)NCCc2ccc(Cl)c(Cl)c2)c1` [Example 104, 3-(3-cyanophenyl)-N-(3,4-dichlorophenethyl)propiolamide], the inhibition at 10 µM came out at 84%.

For the compound `O=C(C#Cc1ccc(F)cc1F)NCCc1cccs1` [Example 117, 3-(2,4-difluorophenyl)-N-(2-(thiophene-2-yl)ethyl)propiolamide], the inhibition at 10 µM worked out at 33%.

Take `O=C(C#Cc1ccccc1F)NCCc1cccs1` [Example 118, 3-(2-fluorophenyl)-N-(2-(thiophene-2-yl)ethyl)propiolamide]: the inhibition at 10 µM came to 67%.

Take `COc1cccc(C#CC(=O)NCCc2ccccc2OC)c1` [Example 132, N-(2-methoxyphenethyl)-3-(3-methoxyphenyl)propiolamide]: the inhibition at 10 µM was found to be 83%.

As to `COc1cccc(C#CC(=O)NCCc2ccc(Cl)cc2)c1` [Example 133, N-(4-chlorophenethyl)-3-(3-methoxyphenyl)propiolamide], the inhibition at 10 µM turned out to be 65%.

On to `COc1ccccc1CCNC(=O)C#Cc1ccc(F)c(C)c1` [Example 134, 3-(4-fluoro-3-methylphenyl)-N-(2-methoxyphenethyl)propiolamide], for which the inhibition at 10 µM was found to be 77%.

`Cc1cc(C#CC(=O)NCCc2ccc(Cl)cc2)ccc1F` [Example 135, N-(4-chlorophenethyl)-3-(4-fluoro-3-methylphenyl)propiolamide]: the inhibition at 10 µM came out at 44%.

Take `COc1ccccc1CCNC(=O)C#Cc1ccccc1` [Example 136, N-(2-methoxyphenethyl)-3-phenylpropiolamide]: the inhibition at 10 µM came out at 110%.

`O=C(C#Cc1ccccc1)NCCc1ccc(Cl)cc1` [Example 137, N-(4-chlorophenethyl)-3-phenylpropiolamide]: the inhibition at 10 µM came out at 67%.

With `COc1ccccc1CCNC(=O)C#Cc1cccc(C)c1` [Example 138, N-(2-methoxyphenethyl)-3-m-tolylpropiolamide], the inhibition at 10 µM is 97%.

In the case of `Cc1cccc(C#CC(=O)NCCc2ccc(Cl)cc2)c1` [Example 139, N-(4-chlorophenethyl)-3-m-tolylpropiolamide], the inhibition at 10 µM was 91%.

Turning to `O=C(C#Cc1ccc(F)cc1)NCCc1ccc(Cl)cc1` [Example 140, N-(4-chlorophenethyl)-3-(4-fluorophenyl)propiolamide], the inhibition at 10 µM is 53%.

For `O=C(C#Cc1ccccc1F)NCCc1cccc(Cl)c1` [Example 148, N-(3-chlorophenethyl)-3-(2-fluorophenyl)propiolamide], the inhibition at 10 µM is 79%.

As to `Cc1ccc(CCNC(=O)C#Cc2ccccc2F)cc1` [Example 149, 3-(2-fluorophenyl)-N-(4-methylphenethyl)propiolamide], the inhibition at 10 µM worked out at 57%.

On to `O=C(C#Cc1ccccc1F)NCCc1ccc(F)cc1` [Example 151, N-(4-fluorophenethyl)-3-(2-fluorophenyl)propiolamide], for which the inhibition at 10 µM came to 66%.

In the case of `COc1ccccc1CCNC(=O)C#Cc1cccs1` [Example 189, N-(2-methoxyphenethyl)-3-(thiophene-2-yl)propiolamide], the inhibition at 10 µM was determined as 85%.

Regarding `O=C(C#Cc1cccs1)NCCc1ccc(Cl)cc1` [Example 190, N-(4-chlorophenethyl)-3-(thiophene-2-yl)propiolamide], the inhibition at 10 µM came out at 65%.

`COc1ccccc1CCNC(=O)C#Cc1cccc(C#N)c1` [Example 191, 3-(3-cyanophenyl)-N-(2-methoxyphenethyl)propiolamide]: the inhibition at 10 µM worked out at 96%.

On to `N#Cc1cccc(C#CC(=O)NCCc2ccc(Cl)cc2)c1` [Example 192, N-(4-chlorophenethyl)-3-(3-cyanophenyl)propiolamide], for which the inhibition at 10 µM stood at 91%.

For the compound `COc1ccccc1CCNC(=O)C#Cc1ccc(F)cc1F` [Example 193, 3-(2,4-difluorophenyl)-N-(2-methoxyphenethyl)propiolamide], the inhibition at 10 µM worked out at 31%.

Regarding `COc1ccccc1CCNC(=O)C#Cc1ccccc1F` [Example 194, 3-(2-fluorophenyl)-N-(2-methoxyphenethyl)propiolamide], the inhibition at 10 µM was 81%.

By IC50 is commonly meant the point on the concentration scale where inhibition reaches its midpoint. A lower IC50 goes with greater potency in that assay. Compound `O=C(C#Cc1cccc(Cl)c1)NCCc1ccccc1F` [Example 215, 3-(3-chlorophenyl)-N-(2-fluorophenethyl)propiolamide] came in with an IC50 of 9 nM.

Turning to `O=C(C#Cc1cccc(Cl)c1)NCCc1cccc(F)c1` [Example 216, 3-(3-chlorophenyl)-N-(3-fluorophenethyl)propiolamide], 12 nM corresponded to half-maximal inhibition (IC50).

Compound `O=C(C#Cc1cccc(Cl)c1)NCCc1ccc(F)cc1` [Example 217, 3-(3-chlorophenyl)-N-(4-fluorophenethyl)propiolamide] registered an IC50 of 140 nM.

`CN(CCc1ccccc1F)C(=O)C#Cc1cccc(Cl)c1` [Example 218, 3-(3-chlorophenyl)-N-(2-fluorophenethyl)-N-methylpropiolamide] gave an IC50 of 16 nM.

In the case of `O=C(C#Cc1cccc(Cl)c1)NCCc1cccc(C(F)(F)F)c1` [Example 219, 3-(3-chlorophenyl)-N-(3-(trifluoromethyl)phenethyl)propiolamide], the IC50 is 450 nM.

The compound `CN(CCc1ccc(F)cc1)C(=O)C#Cc1cccc(Cl)c1` [Example 220, 3-(3-chlorophenyl)-N-(4-fluorophenethyl)-N-methylpropiolamide] yielded an IC50 of 9 nM.

For `CN(CCc1cccc(F)c1)C(=O)C#Cc1cccc(Cl)c1` [Example 221, 3-(3-chlorophenyl)-N-(3-fluorophenethyl)-N-methylpropiolamide], the IC50 was determined as 8 nM.

Turning to `CN(CCc1cccc(C(F)(F)F)c1)C(=O)C#Cc1cccc(Cl)c1` [Example 222, 3-(3-chlorophenyl)-N-methyl-N-(3-(trifluoromethyl)phenethyl)propiolamide], the IC50 was found to be 75 nM.

Take `Cc1ccccc1CCNC(=O)C#Cc1cccc(Cl)c1` [Example 223, 3-(3-chlorophenyl)-N-(2-methylphenethyl)propiolamide]: inhibition was half-maximal at 13 nM (IC50).

For the compound `Cc1cccc(CCNC(=O)C#Cc2cccc(Cl)c2)c1` [Example 224, 3-(3-chlorophenyl)-N-(3-methylphenethyl)propiolamide], half-maximal inhibition (IC50) was put at 40 nM.

`Cc1ccc(CCNC(=O)C#Cc2cccc(Cl)c2)cc1` [Example 225, 3-(3-chlorophenyl)-N-(4-methylphenethyl)propiolamide] yielded an IC50 of 210 nM.

The compound `Cc1ccccc1CCN(C)C(=O)C#Cc1cccc(Cl)c1` [Example 226, 3-(3-chlorophenyl)-N-methyl-N-(2-methylphenethyl)propiolamide] had an IC50 of 8 nM.

As for `Cc1cccc(CCN(C)C(=O)C#Cc2cccc(Cl)c2)c1` [Example 227, 3-(3-chlorophenyl)-N-methyl-N-(3-methylphenethyl)propiolamide], the IC50 was 15 nM.

As to `Cc1ccc(CCN(C)C(=O)C#Cc2cccc(Cl)c2)cc1` [Example 228, 3-(3-chlorophenyl)-N-methyl-N-(4-methylphenethyl)propiolamide], the IC50 worked out at 280 nM.

Take `O=C(C#Cc1cccc(Cl)c1)NCCn1cccc1` [Example 230, N-(2-(1H-pyrrol-1-yl)ethyl)-3-(3-chlorophenyl)propiolamide]: the half-inhibitory concentration (IC50) was determined as 190 nM.

Compound `O=C(C#Cc1cccc(Cl)c1)NCCn1cccn1` [Example 231, N-(2-(1H-pyrazol-1-yl)ethyl)-3-(3-chlorophenyl)propiolamide] registered an IC50 of 140 nM.

On to `CN(CCn1cccc1)C(=O)C#Cc1cccc(Cl)c1` [Example 233, N-(2-(1H-pyrrol-1-yl)ethyl)-3-(3-chlorophenyl)-N-methylpropiolamide], for which the IC50 came out at 31 nM.

`CN(CCn1cccn1)C(=O)C#Cc1cccc(Cl)c1` [Example 234, N-(2-(1H-pyrazol-1-yl)ethyl)-3-(3-chlorophenyl)-N-methylpropiolamide] displayed an IC50 of 51 nM.

For `O=C(C#Cc1cccc(Cl)c1)NCCc1cccnc1` [Example 235, 3-(3-chlorophenyl)-N-(2-(pyridine-3-yl)ethyl)propiolamide], the IC50 was 7 nM.

`CN(CCc1ccccn1)C(=O)C#Cc1cccc(Cl)c1` [Example 236, 3-(3-chlorophenyl)-N-methyl-N-(2-(pyridine-2-yl)ethyl)propiolamide] yielded an IC50 of 29 nM.

The compound `CCN(CCc1ccccc1)C(=O)C#Cc1cccc(Cl)c1` [Example 237, 3-(3-chlorophenyl)-N-ethyl-N-phenethylpropiolamide] yielded an IC50 of 44 nM.
